Laboratory results: US12098145B2 (Libra Therapeutics, Inc., priority 2022, dated 2024)
Read-outs that look alike come from different tables or passages of the source.

Assays:
TFEB = TFEB translocation assay (TFEB reporter in U2OS cells, imaging); format: cell-based; settings: Homo sapiens; U2OS cell line with TFEB reporter, 2 hours incubation, nucleus to cytoplasm ratio, normalized to Torin-1; read-out: TFEB Translocation pEC50 (converted)
In short: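 U2OS cells stably expressing mRFP-fused TFEB reporter, switched to Opti-MEM then treated 2 h at 37 °C with compounds (0.5% DMSO, 0.015% Tween 80). Hoechst-stained, PFA-fixed cells imaged at 20×; nucleus/cytoplasm intensity ratio per well normalized to Torin-1 (100%) and DMSO (0%).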

TRPML1 = target: T1, TRPML1 (Homo sapiens, UniProt Q9GZU1); assay: Cellular TRPML1 assay (FLIPR, GCaMP6f calcium read-out); format: cell-based
T1 construct: expressed in transfected cells; host or cells: HEK T-REx cells stably expressing GCaMP6f and TRPML1
T1 sequence (Q9GZU1 whole entry): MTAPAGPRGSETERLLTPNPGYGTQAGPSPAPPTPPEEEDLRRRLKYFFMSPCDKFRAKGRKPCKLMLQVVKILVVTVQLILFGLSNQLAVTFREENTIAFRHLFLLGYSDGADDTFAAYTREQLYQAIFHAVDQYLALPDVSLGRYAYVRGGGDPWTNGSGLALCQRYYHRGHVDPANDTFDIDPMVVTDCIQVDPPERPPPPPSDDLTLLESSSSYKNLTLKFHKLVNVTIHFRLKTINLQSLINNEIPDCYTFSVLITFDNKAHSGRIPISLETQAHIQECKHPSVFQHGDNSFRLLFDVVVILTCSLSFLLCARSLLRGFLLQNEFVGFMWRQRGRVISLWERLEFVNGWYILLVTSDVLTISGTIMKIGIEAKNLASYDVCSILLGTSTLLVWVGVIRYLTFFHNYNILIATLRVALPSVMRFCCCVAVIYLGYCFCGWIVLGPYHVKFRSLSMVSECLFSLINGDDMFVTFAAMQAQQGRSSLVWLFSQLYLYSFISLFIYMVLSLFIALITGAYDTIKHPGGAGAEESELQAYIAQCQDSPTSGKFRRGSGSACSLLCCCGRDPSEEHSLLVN
In short: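 HEK T-REx cells stably expressing TRPML1 and GCaMP6f, seeded 24 h before in Optimem + 0.5% FBS. After ~10 min pre-incubation at room temperature, compounds in Ca2+-free Tyrode's buffer were injected on FLIPR Tetra (final DMSO 0.5%). Calcium fluorescence kinetics followed for 300 s.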

[1] = HEKT-REx/GCaMP6f/TRPML1 cells, FLIPR TETRA, kinetic response over 300 seconds, read-out: TRPML1 FLIPR pEC50 (converted)

## CCC1(CC)CN(c2nc(C(=O)Nc3cc(F)c(OC4CCC5CC54)c(F)c3)c(CC(F)(F)F)o2)C1 (stereo not shown) [Example 155, N-(4-(bicyclo[3.1.0]hexan-2-yloxy)-3,5-difluorophenyl)-2-(3,3-diethylazetidin-1-yl)-5-(2,2,2-trifluoroethyl)oxazole-4-carboxamide]
TFEB
  EC50: 10 to 1000 nM
TRPML1; [1]
  EC50: 10 to 1000 nM

## CCc1oc(N2CC3CCC3C2)nc1C(=O)Nc1ccc(OC2CC3C[C@H]3C2)c(F)c1 (stereo partly drawn) [Example 247, N-(4-(cis-bicyclo[3.1.0]hexan-3-yloxy)-3-fluorophenyl)-2-(3-azabicyclo[3.2.0]heptan-3-yl)-5-ethyloxazole-4-carboxamide]
TFEB
  EC50: 10 to 1000 nM
TRPML1; [1]
  EC50: 10 to 1000 nM

## O=C(Nc1ccc(N2CCCCC2)c(F)c1)c1nc(N2CC3(C2)CC(F)(F)C3)oc1CC(F)(F)F [Example 30, 2-{6,6-difluoro-2-azaspiro[3.3]heptan-2-yl}-N-[3-fluoro-4-(piperidin-1-yl)phenyl]-5-(2,2,2-trifluoroethyl)oxazole-4-carboxamide]
TFEB
  EC50: 1000 to 10000 nM
TRPML1; [1]
  EC50: 1000 to 10000 nM

## Cc1oc(N2CCC3(CC3)C2)nc1C(=O)Nc1ccc(N2CCCCC2)c(F)c1 [Example 91, N-(3-fluoro-4-(piperidin-1-yl)phenyl)-5-methyl-2-(5-azaspiro[2.4]heptan-5-yl)oxazole-4-carboxamide]
TFEB
  EC50: 1000 to 10000 nM
TRPML1; [1]
  EC50: 1000 to 10000 nM

## CCC1(CC)CN(c2nc(C(=O)Nc3ccc(OC4CC5CC(C5)C4)c(F)c3)c(CCF)o2)C1 (stereo not shown) [Example 283, N-(4-(bicyclo[3.1.1]heptan-3-yloxy)-3-fluorophenyl)-2-(3,3-diethylazetidin-1-yl)-5-(2-fluoroethyl)oxazole-4-carboxamide]
TFEB
  EC50: 10 to 1000 nM
TRPML1; [1]
  EC50: 10 to 1000 nM

## O=C(Nc1ccc(O[C@@H]2C[C@@H]3C[C@@H]3C2)c(F)c1)c1nc(N2CCCC2)oc1CC(F)(F)F [Example 74, N-(4-{cis-bicyclo[3.1.0]hexan-3-yloxy}-3-fluorophenyl)-2-(pyrrolidin-1-yl)-5-(2,2,2-trifluoroethyl)oxazole-4-carboxamide]
TFEB
  EC50: 10 to 1000 nM
TRPML1; [1]
  EC50: 10 to 1000 nM

## CCc1oc(N2CC(C)(CO)C2)nc1C(=O)Nc1cc(C)c(OC2CC3CC(C3)C2)c(F)c1 (stereo not shown) [Example 224, N-(4-(bicyclo[3.1.1]heptan-3-yloxy)-3-fluoro-5-methylphenyl)-5-ethyl-2-(3-(hydroxymethyl)-3-methylazetidin-1-yl)oxazole-4-carboxamide]
TFEB
  EC50: 10 to 1000 nM
TRPML1; [1]
  EC50: 10 to 1000 nM

## CCC1(OC)CN(c2nc(C(=O)Nc3cc(F)c(OC4CC5CCC4C5)c(F)c3)c(CC(F)(F)F)o2)C1 (stereo not shown) [Example 150, N-(4-(bicyclo[2.2.1]heptan-2-yloxy)-3,5-difluorophenyl)-2-(3-ethyl-3-methoxyazetidin-1-yl)-5-(2,2,2-trifluoroethyl)oxazole-4-carboxamide]
TFEB
  EC50: 10 to 1000 nM
TRPML1; [1]
  EC50: 10 to 1000 nM

## Cc1cc(NC(=O)c2nc(N3CCCC3)oc2CC(F)(F)F)cc(F)c1NC1CC2CC(C2)C1 (stereo not shown) [Example 193, N-(4-(bicyclo[3.1.1]heptan-3-ylamino)-3-fluoro-5-methylphenyl)-2-(pyrrolidin-1-yl)-5-(2,2,2-trifluoroethyl)oxazole-4-carboxamide]
TFEB
  EC50: 10 to 1000 nM
TRPML1; [1]
  EC50: 10 to 1000 nM

## CCC1(CC)CN(c2nc(C(=O)Nc3cc(C)c(OC4CC5CC(C5)C4)c(F)c3)c(CCF)o2)C1 (stereo not shown) [Example 282, N-(4-(bicyclo[3.1.1]heptan-3-yloxy)-3-fluoro-5-methylphenyl)-2-(3,3-diethylazetidin-1-yl)-5-(2-fluoroethyl)oxazole-4-carboxamide]
TFEB
  EC50: 10 to 1000 nM
TRPML1; [1]
  EC50: 10 to 1000 nM

## COC1(C)CN(c2nc(C(=O)Nc3cc(F)c(N4C5CCCC4CC5)c(C#N)c3)c(CC(F)(F)F)o2)C1 [Example 196, N-(4-(8-azabicyclo[3.2.1]octan-8-yl)-3-cyano-5-fluorophenyl)-2-(3-methoxy-3-methylazetidin-1-yl)-5-(2,2,2-trifluoroethyl)oxazole-4-carboxamide]
TFEB
  EC50: 10 to 1000 nM
TRPML1
  EC50: 10 to 1000 nM

## CCc1oc(N2CC(CC)(OC)C2)nc1C(=O)Nc1cc(F)c(O[C@@H]2C[C@@H]3C[C@@H]3C2)c(Cl)c1 [Example 219, N-(4-(cis-bicyclo[3.1.0]hexan-3-yloxy)-3-chloro-5-fluorophenyl)-5-ethyl-2-(3-ethyl-3-methoxyazetidin-1-yl)oxazole-4-carboxamide]
TFEB
  EC50: 10 to 1000 nM
TRPML1; [1]
  EC50: 10 to 1000 nM

## O=C(Nc1ccc(O[C@@H]2C[C@@H]3C[C@@H]3C2)c(F)c1)c1nc(N2CC3CCC3C2)oc1CC(F)(F)F (stereo partly drawn) [Example 161, N-(4-(cis-bicyclo[3.1.0]hexan-3-yloxy)-3-fluorophenyl)-2-(3-azabicyclo[3.2.0]heptan-3-yl)-5-(2,2,2-trifluoroethyl)oxazole-4-carboxamide]
TFEB
  EC50: 10 to 1000 nM
TRPML1; [1]
  EC50: 10 to 1000 nM

## CCC1(CC)CN(c2nc(C(=O)Nc3cc(C)c(O[C@@H]4C[C@@H]5C[C@@H]5C4)c(F)c3)c(CCF)o2)C1 [Example 285, N-(4-(cis-bicyclo[3.1.0]hexan-3-yloxy)-3-fluoro-5-methylphenyl)-2-(3,3-diethylazetidin-1-yl)-5-(2-fluoroethyl)oxazole-4-carboxamide]
TFEB
  EC50: 10 to 1000 nM
TRPML1; [1]
  EC50: 10 to 1000 nM

## O=C(Nc1cc(F)c(O[C@@H]2C[C@@H]3C[C@@H]3C2)c(F)c1)c1nc(N2CCC23CCC3)oc1CC(F)(F)F [Example 170, N-(4-(cis-bicyclo[3.1.0]hexan-3-yloxy)-3,5-difluorophenyl)-2-(1-azaspiro[3.3]heptan-1-yl)-5-(2,2,2-trifluoroethyl)oxazole-4-carboxamide]
TFEB
  EC50: 10 to 1000 nM
TRPML1; [1]
  EC50: 10 to 1000 nM

## CCN(C)Cc1oc(N2CC(CC)(OC)C2)nc1C(=O)Nc1cc(F)c(O[C@@H]2C[C@@H]3C[C@@H]3C2)c(F)c1 [Example 304, N-(4-(cis-bicyclo[3.1.0]hexan-3-yloxy)-3,5-difluorophenyl)-5-((ethyl(methyl)amino)methyl)-2-(3-ethyl-3-methoxyazetidin-1-yl)oxazole-4-carboxamide]
TFEB
  EC50: 10 to 1000 nM
TRPML1; [1]
  EC50: 10 to 1000 nM

## Cc1oc(N2CCC3(COC3)C2)nc1C(=O)Nc1ccc(N2CCCCC2)c(F)c1 [Example 90, N-(3-fluoro-4-(piperidin-1-yl)phenyl)-5-methyl-2-(2-oxa-6-azaspiro[3.4]octan-6-yl)oxazole-4-carboxamide]
TFEB
  EC50: 1000 to 10000 nM
TRPML1; [1]
  EC50: 1000 to 10000 nM

## CCC1(CC)CN(c2nc(C(=O)Nc3cc(C)c(O[C@@H]4C[C@@H]5C[C@@H]5C4)c(F)c3)c(COC)o2)C1 [Example 293, N-(4-(cis-bicyclo[3.1.0]hexan-3-yloxy)-3-fluoro-5-methylphenyl)-2-(3,3-diethylazetidin-1-yl)-5-(methoxymethyl)oxazole-4-carboxamide]
TFEB
  EC50: 10 to 1000 nM
TRPML1; [1]
  EC50: 10 to 1000 nM

## O=C(Nc1ccc(OC2CCCCC2(F)F)c(F)c1)c1nc(N2CCC3(COC3)C2)oc1CC(F)(F)F (stereo not shown) [Example 68, N-(4-((2,2-difluorocyclohexyl)oxy)-3-fluorophenyl)-2-(2-oxa-6-azaspiro[3.4]octan-6-yl)-5-(2,2,2-trifluoroethyl)oxazole-4-carboxamide]
TFEB
  EC50: 10 to 1000 nM
TRPML1; [1]
  EC50: 10 to 1000 nM

## O=C(Nc1cc(F)c(O[C@@H]2C[C@@H]3C[C@@H]3C2)c(F)c1)c1nc(N2CCCCCC2)oc1CC(F)(F)F [Example 174, 2-(azepan-1-yl)-N-(4-(cis-bicyclo[3.1.0]hexan-3-yloxy)-3,5-difluorophenyl)-5-(2,2,2-trifluoroethyl)oxazole-4-carboxamide]
TFEB
  EC50: 10 to 1000 nM
TRPML1; [1]
  EC50: 10 to 1000 nM

## O=C(Nc1ccc(O[C@@H]2C[C@@H]3C[C@@H]3C2)c(F)c1)c1nc(N2CCC3(CC3)C2)oc1CC(F)(F)F [Example 75, 2-{5-azaspiro[2.4]heptan-5-yl}-N-(4-{cis-bicyclo[3.1.0]hexan-3-yloxy}-3-fluorophenyl)-5-(2,2,2-trifluoroethyl)oxazole-4-carboxamide]
TFEB
  EC50: 10 to 1000 nM
TRPML1; [1]
  EC50: 10 to 1000 nM

## O=C(Nc1ccc(N2C3CCCC2C3)c(F)c1)c1nc(N2CCCC2)oc1CC(F)(F)F [Example 83, N-(4-{6-azabicyclo[3.1.1]heptan-6-yl}-3-fluorophenyl)-2-(pyrrolidin-1-yl)-5-(2,2,2-trifluoroethyl)oxazole-4-carboxamide]
TFEB
  EC50: 10 to 1000 nM
TRPML1
  EC50: 10 to 1000 nM

## CCc1oc(N2CC(CC)(CC)C2)nc1C(=O)Nc1cc(F)c2c(c1)CCN2C1CC2CC2C1 (stereo not shown) [Example 316, N-(1-(bicyclo[3.1.0]hexan-3-yl)-7-fluoroindolin-5-yl)-2-(3,3-diethylazetidin-1-yl)-5-ethyloxazole-4-carboxamide]
TFEB
  EC50: 10 to 1000 nM
TRPML1; [1]
  EC50: 10 to 1000 nM

## O=C(Nc1ccc(OC2CCCC2(F)F)c(F)c1)c1nc(N2CCC3(CCC3)C2)oc1CC(F)(F)F (stereo not shown) [Example 15, N-(4-((2,2-difluorocyclopentyl)oxy)-3-fluorophenyl)-2-(6-azaspiro[3.4]octan-6-yl)-5-(2,2,2-trifluoroethyl)oxazole-4-carboxamide]
TFEB
  EC50: 10 to 1000 nM
TRPML1; [1]
  EC50: 10 to 1000 nM

## COC1(C)CN(c2nc(C(=O)Nc3cc(O)c(N4C5CCCC4CC5)c(F)c3)c(CC(F)(F)F)o2)C1 [Example 272, N-(4-(8-azabicyclo[3.2.1]octan-8-yl)-3-fluoro-5-hydroxyphenyl)-2-(3-methoxy-3-methylazetidin-1-yl)-5-(2,2,2-trifluoroethyl)oxazole-4-carboxamide]
TFEB
  EC50: 10 to 1000 nM
TRPML1
  EC50: 10 to 1000 nM

## O=C(Nc1ccc(OC2CCCC2(F)F)c(F)c1)c1nc(N2CCCC2)oc1CC(F)(F)F (stereo not shown) [Example 22, N-{4-[(2,2-difluorocyclopentyl)oxy]-3-fluorophenyl}-2-(pyrrolidin-1-yl)-5-(2,2,2-trifluoroethyl)oxazole-4-carboxamide]
TFEB
  EC50: 10 to 1000 nM
TRPML1; [1]
  EC50: 10 to 1000 nM
